Measured values taken from patent US20230146455A1, “TREATMENT OF INFLAMMATORY DISEASES WITH PEPTIDES AND PHARMACEUTICAL COMPOSITIONS” (Yuyu Pharma, Inc., priority 2020, published 2023).
Several values for one entry are separate records, joined by “and”; a condition that tells them apart may be missing. Equal entries are not always repeated. Where a SMILES comes first, the peptide text is derived from it. [ ]: non-standard residue; d: D form. Hyp = O=C(O)[C@@H]1C[C@@H](O)CN1

Test system: IL-1 beta/IL-1F2
Test: Example 8 main study Luminex, LPS hPBMCs: IL-1 beta/IL-1F2
Type: cell-based, human
Method: Human PBMCs were pretreated with YY-101, YDE-011, YDE-043 or reference compound; Xiidra® at various concentration (ranging from […] to 500 nM) for 2 h before stimulation. An equal volume of 0.5% DMSO was used as a vehicle control. Then, the cells were treated with LPS at 5 ug/ml, which was selected based on the pilot study. The supernatants from treated cells were harvested at 24 h and placed in a 96 well for Luminex cytokine & chemokine profiling using a Luminex 200 multiplex assay (Luminex; R&D system, USA).
The main study arm with triplicate wells per group in a 24-well plate: • 1. Blank • 2. PBMC: 0.5% DMSO • 3. PBMC+LPS (5 ug/ml) • 4. PBMC+YY-101 500 nM • 5. PBMC+YY-101 50 nM • 6. PBMC+YY-101 5 nM • 7. PBMC+YY-101 0.5 nM • 8. PBMC+LPS (5 ug/ml)+Xiidra® 500 nM • 9. PBMC+LPS (5 ug/ml)+Xiidra® 50 nM • 10. PBMC+LPS (5 ug/ml)+Xiidra® 5 nM • 11. PBMC+LPS (5 ug/ml)+Xiidra® 0.5 nM • 12. PBMC+LPS (5 ug/ml)+Xiidra® 0.05 nM • 13. PBMC+LPS (5 ug/ml)+Xiidra® 0.005 nM • 14. PBMC+LPS (5 ug/ml)+YY-101 500 nM • 15. PBMC+LPS (5 ug/ml)+YY-101 50 nM • 16. PBMC+LPS (5 ug/ml)+YY-101 5 nM • 17. PBMC+LPS (5 ug/ml)+YY-101 0.5 nM • 18. PBMC+LPS (5 ug/ml)+YY-101 0.05 nM • 19. PBMC+LPS (5 ug/ml)+YY-101 0.005 nM • 20. PBMC+LPS (5 ug/ml)+YDE-011 500 nM • 21. PBMC+LPS (5 ug/ml)+YDE-011 50 nM • 22. PBMC+LPS (5 ug/ml)+YDE-011 5 nM • 23. PBMC+LPS (5 ug/ml)+YDE-011 0.5 nM • 24. PBMC+LPS (5 ug/ml)+YDE-011 0.05 nM • 25. PBMC+LPS (5 ug/ml)+YDE-011 0.005 nM • 26. PBMC+LPS (5 ug/ml)+YDE-043 500 nM • 27. PBMC+LPS (5 ug/ml)+YDE-043 50 nM • 28. PBMC+LPS (5 ug/ml)+YDE-043 5 nM • 29. PBMC+LPS (5 ug/ml)+YDE-043 0.5 nM • 30. PBMC+LPS (5 ug/ml)+YDE-043 0.05 nM • 31. PBMC+LPS (5 ug/ml)+YDE-043 0.005 nM
Multiplex assay was used to measure 30 cytokines and chemokines. The 1:200 diluted cell supernatant and serial dilution of the standard were dispensed into a 96 well plate at 50 ul/well. Then, the pre-mixed cocktail of antibody-coated magnetic beads was dispensed at 50 ul/well and incubated at room temperature for 2 h in a horizontal orbital microplate shaker at 800±500 rpm. The beads were washed using a magnetic device to prevent loss. The biotin-antibody was dispensed in 50 ul of each well and incubated at room temperature for 1 h in a shaker at 800±500 rpm. After washing, streptavidin-PE was added at 50 ul/well and incubated at room temperature for 30 min in a shaker under the same conditions. Finally, after washing, wash buffer (100 ul/well) was added to the plate and incubated in a shaker for 2 min. The Luminex™ 200 setting were set according to the manufacturer's protocol. The data was calculated with a standard five-parameter logistic nonlinear regression analysis of the data (xPonent software 4.2, USA). Results were presented as concentration (ng/ml or pg/ml).

[1] = PBMC + LPS(5 ug/ml) + test article 0.005 nM, Mean
[2] = PBMC + LPS(5 ug/ml) + test article 0.005 nM, individual replicates
[3] = PBMC + LPS(5 ug/ml) + test article 0.05 nM, Mean
[4] = PBMC + LPS(5 ug/ml) + test article 0.05 nM, individual replicates
[5] = PBMC + LPS(5 ug/ml) + test article 0.5 nM, Mean
[6] = PBMC + LPS(5 ug/ml) + test article 0.5 nM, individual replicates
[7] = PBMC + LPS(5 ug/ml) + test article 5 nM, Mean
[8] = PBMC + LPS(5 ug/ml) + test article 5 nM, individual replicates
[9] = PBMC + LPS(5 ug/ml) + test article 50 nM, Mean
[10] = PBMC + LPS(5 ug/ml) + test article 50 nM, individual replicates
[11] = PBMC + LPS(5 ug/ml) + test article 500 nM, Mean
[12] = PBMC + LPS(5 ug/ml) + test article 500 nM, individual replicates

CC(C)C[C@H](NC(=O)[C@H](CCC(N)=O)NC(=O)CNC(=O)[C@@H]1C[C@@H](O)CN1)C(=O)NCC(=O)O [YDE-043] (H-[Hyp]GQLG-OH; N-terminus and C-terminus assumed)
LPS-induced IL-1b levels (in words) (LPS 5 ug/mL 24 hrs): significantly lowered
IL-1 beta/IL-1F2 Concentration [1]: 5499.4 pg/mL
IL-1 beta/IL-1F2 MFI [1]: 100.0
IL-1 beta/IL-1F2 Concentration [2]: 4547.7 pg/mL and 5320.3 pg/mL and 6630.3 pg/mL
IL-1 beta/IL-1F2 MFI [2]: 84.0 and 97.0 and 119.0
IL-1 beta/IL-1F2 Concentration [3]: 4458.6 pg/mL
IL-1 beta/IL-1F2 MFI [3]: 82.5
IL-1 beta/IL-1F2 Concentration [4]: 4488.3 pg/mL and 4428.9 pg/mL and 4458.6 pg/mL
IL-1 beta/IL-1F2 MFI [4]: 83.0 and 82.0 and 82.5
IL-1 beta/IL-1F2 Concentration [5]: 4725.9 pg/mL
IL-1 beta/IL-1F2 MFI [5]: 87.0
IL-1 beta/IL-1F2 Concentration [6]: 4963.6 pg/mL and 4785.3 pg/mL and 4428.9 pg/mL
IL-1 beta/IL-1F2 MFI [6]: 91.0 and 88.0 and 82.0
IL-1 beta/IL-1F2 Concentration [7]: 5379.8 pg/mL
IL-1 beta/IL-1F2 MFI [7]: 98.0
IL-1 beta/IL-1F2 Concentration [8]: 5379.8 pg/mL and 5558.3 pg/mL and 5201.4 pg/mL
IL-1 beta/IL-1F2 MFI [8]: 98.0 and 101.0 and 95.0
IL-1 beta/IL-1F2 Concentration [9]: 5280.8 pg/mL
IL-1 beta/IL-1F2 MFI [9]: 96.3
IL-1 beta/IL-1F2 Concentration [10]: 5588.1 pg/mL and 5469.1 pg/mL and 4785.3 pg/mL
IL-1 beta/IL-1F2 MFI [10]: 101.5 and 99.5 and 88.0
IL-1 beta/IL-1F2 Concentration [11]: 4508.2 pg/mL
IL-1 beta/IL-1F2 MFI [11]: 83.3
IL-1 beta/IL-1F2 Concentration [12]: 4428.9 pg/mL and 4191.5 pg/mL and 4904.1 pg/mL
IL-1 beta/IL-1F2 MFI [12]: 82.0 and 78.0 and 90.0
